This test has as its target T1, ChT-L activity of 20S proteasome (Mus musculus, UniProt O09061+O55234).
T1 construct: 20S proteasome purified from mouse liver; from tissue; host or cells: mouse liver
The experiment in a line: Assay for ChT-L activity of 20S proteasome with fluorogenic peptide Suc-Leu-Leu-Val-Tyr-AMC. It counts as biochemical. To be noted: for IC50: 20S proteasome purified from mouse liver (1 μg), 50 μM Suc-Leu-Leu-Val-Tyr-AMC, 20 mM Tris-HCl pH 7.8, 37 °C, 1 h; for fold higher ChT-L inhibitory activity than the other Cbz series compounds: comparison within the Cbz series; for ChT-L inhibitory activity compared with the control MG132: result in words, versus positive control MG132. As for the experimental part:
Inhibitory activities of peptide aldehydes on the 20S proteasome are assayed in vitro [41]. MG132 was used as the positive control (Table 1).
Assays for proteasome activities. The enzymatic activities of the proteasome were assayed using fluorogenic peptides: Suc-Leu-Leu-Val-Tyr-AMC (Suc represents succinyl and AMC represents […], obtained from Sigma) for ChT-L activity. 20S proteasome purified from mouse liver (1 μg) was incubated with various concentrations of compounds and 50 μM fluorogenic peptides in 20 mM Tris-HCl pH 7.8 (100 μL) at 37 °C for 1 h, respectively. The fluorescence of released AMC was measured by a spectrofluorimeter (Fluostar OPTIMA, BMG Germany) at excitation/emission wavelengths of 380/440 nm and 335/410 nm, respectively. 0.1% DMSO was used as solvent control. Compared with the fluorescence of solvent control, an inhibition rate was calculated and thereafter the IC50 value was deduced.

The values below come from PMC6264673, “Synthesis and SAR Study of Novel Peptide Aldehydes as Inhibitors of 20S Proteasome” (Molecules, 2011).

Non-standard residues stand in square brackets, D forms with d. Residues, ends and D or L forms follow the SMILES beside them. *: point of attachment. Arg(NO2) = N=C(NCCC[C@H](N)C(=O)O)N[N+](=O)[O-]; 2Nal = N[C@@H](Cc1ccc2ccccc2c1)C(=O)O; Tos = Cc1ccc(S(=O)(=O)*)cc1; Cbz = O=C(OCc1ccccc1)*; Boc = CC(C)(C)OC(=O)*; OBn = c1ccc(CO*)cc1; Bn = c1ccc(C*)cc1; OtBu = CC(C)(C)O* Bounds are passed on as bounds.

Take `CC(C)CC(C=O)NC(=O)C(CC(C)C)NC(=O)C(NC(=O)OC(C)(C)C)C(C)OCc1ccccc1` [Compound 3p, Boc-L-Thr(OBn)-L-Leu-L-Leucinal] (Boc-Thr(Bn)-Leu-Leu-aldehyde; configuration not given here): the IC50 came to 290 ± 21 nM.
For the molecule `CC(C)CC(C=O)NC(=O)C(CC(C)C)NC(=O)C(Cc1ccc(OCc2ccccc2)cc1)NC(=O)OC(C)(C)C` [Compound 3q, Boc-L-Tyr(OBn)-L-Leu-L-Leucinal] (Boc-Tyr(Bn)-Leu-Leu-aldehyde; configuration not given here), the IC50 was over 50000 nM.
`CC(C)C[C@@H](C=O)NC(=O)[C@H](CC(C)C)NC(=O)[C@H](CCC(=O)OC(C)(C)C)NC(=O)OCc1ccccc1` [Compound 3d, Cbz-L-Glu(OtBu)-L-leu-L-Leucinal] (Cbz-Glu(OtBu)-Leu-Leu-aldehyde): 89 ± 20 nM corresponded to half-maximal inhibition (IC50), the “fold higher ChT-L inhibitory activity than the other Cbz series compounds” value is on record as “about 10 fold” and the “ChT-L inhibitory activity compared with the control MG132” value is “much higher activities than the control MG132”.
`CC(C)C[C@@H](C=O)NC(=O)[C@H](Cc1ccccc1)NC(=O)[C@H](CC(=O)OCc1ccccc1)NC(=O)OC(C)(C)C` [Compound 3i, Boc-L-Asp(OBzl)-L-Phe-L-Leucinal] (Boc-Asp(OBn)-Phe-Leu-aldehyde) displayed an IC50 of 4830 ± 2300 nM.
Consider `CC(C)CC(C=O)NC(=O)C(Cc1ccccc1)NC(=O)C1CCCN1C(=O)OC(C)(C)C` [Compound 3m, Boc-L-Pro-L-Phe-L-Leucinal] (Boc-Pro-Phe-Leu-aldehyde; configuration not given here), for which the IC50 is over 50000 nM.
In turn, `CC(C)C[C@@H](C=O)NC(=O)[C@H](CC(C)C)NC(=O)[C@H](CCCNC(N)=N[N+](=O)[O-])NC(=O)OCc1ccccc1` [Compound 3f, Cbz-L-Arg(NO2)-L-leu-L-Leucinal] (Cbz-[Arg(NO2)]-Leu-Leu-aldehyde) showed an IC50 of over 50000 nM.
For the molecule `CC(C)CC(C=O)NC(=O)C(CC(C)C)NC(=O)C1CCCN1C(=O)OC(C)(C)C` [Compound 3n, Boc-L-Pro-L-Leu-L-Leucinal] (Boc-Pro-Leu-Leu-aldehyde; configuration not given here), the half-inhibitory concentration (IC50) is over 50000 nM.
For the molecule `CC(C)C[C@@H](C=O)NC(=O)[C@H](Cc1ccccc1)NC(=O)[C@H](CCC(=O)OCc1ccccc1)NC(=O)OC(C)(C)C` [Compound 3k, Boc-L-Glu(OBzl)-L-Phe-L-Leucinal] (Boc-Glu(OBn)-Phe-Leu-aldehyde), the IC50 stood at 7140 ± 1930 nM.
`Cc1ccc(S(=O)(=O)NC(=N)NCCCC(NC(=O)OCc2ccccc2)C(=O)NC(CC(C)C)C(=O)NC(C=O)CC(C)C)cc1` [Compound 3g, Cbz-L-Arg(Tos)-L-leu-L-Leucinal] (Cbz-Arg(Tos)-Leu-Leu-aldehyde; configuration not given here) displayed an IC50 of over 50000 nM.
“Cbz-L-Phe-L-leu-L-Leucinal [Compound 3e]” registered an IC50 of 850 ± 47 nM.
As to `CC(C)CC(C=O)NC(=O)C(CC(C)C)NC(=O)C(CC(=O)OC(C)(C)C)NC(=O)OCc1ccccc1` [Compound 3b, Cbz-L-Asp(OtBu)-L-Leu-L-Leucinal] (Cbz-Asp(OtBu)-Leu-Leu-aldehyde; configuration not given here), the IC50 amounted to 200 ± 35 nM.
Regarding `CC(C)CC(C=O)NC(=O)C(CC(C)C)NC(=O)C(COCc1ccccc1)NC(=O)OC(C)(C)C` [Compound 3o, Boc-L-Ser(OBn)-L-Leu-L-Leucinal] (Boc-Ser(Bn)-Leu-Leu-aldehyde; configuration not given here), inhibition was half-maximal at 50 ± 2 nM (IC50) and the “ChT-L inhibitory activity compared with the control MG132” value is on record as “much higher activities than the control MG132”.
On to `CC(C)C[C@@H](C=O)NC(=O)[C@H](CC(C)C)NC(=O)[C@H](CC(C)C)NC(=O)OCc1ccccc1` [MG132, Cbz-L-Leu-L-Leu-L-Leucinal, reference compound] (Cbz-Leu-Leu-Leu-aldehyde), for which 280 ± 60 nM corresponded to half-maximal inhibition (IC50).
`CC(C)C[C@@H](C=O)NC(=O)[C@H](Cc1ccccc1)NC(=O)[C@H](CCC(=O)OC(C)(C)C)NC(=O)OCc1ccccc1` [Compound 3c, Cbz-L-Glu(OtBu)-L-Phe-L-Leucinal] (Cbz-Glu(OtBu)-Phe-Leu-aldehyde): 28 ± 6 nM corresponded to half-maximal inhibition (IC50), the “fold higher ChT-L inhibitory activity than the other Cbz series compounds” value was “about 10 fold” and the “ChT-L inhibitory activity compared with the control MG132” value was “much higher activities than the control MG132”.
`CC(C)C[C@@H](C=O)NC(=O)[C@H](CC(C)C)NC(=O)[C@H](Cc1ccc2ccccc2c1)NC(=O)OCc1ccccc1` [Compound 3h, Cbz-L-(2-Naphthyl)alanine-L-Leu-L-Leucinal] (Cbz-[2Nal]-Leu-Leu-aldehyde) had an IC50 of 410 ± 82 nM.
Consider `CC(C)CC(C=O)NC(=O)C(Cc1ccccc1)NC(=O)C(CC(=O)OC(C)(C)C)NC(=O)OCc1ccccc1` [Compound 3a, Cbz-L-Asp(OtBu)-L-Phe-L-Leucinal] (Cbz-Asp(OtBu)-Phe-Leu-aldehyde; configuration not given here), for which half-maximal inhibition (IC50) required 210 ± 14 nM. Compared with the last molecule, the IC50 is about 2-fold lower.
Same read-out and setting: the figure for `CC(C)C[C@@H](C=O)NC(=O)[C@H](CC(C)C)NC(=O)[C@H](CCC(=O)OCc1ccccc1)NC(=O)OC(C)(C)C` [Compound 3l, Boc-L-Glu(OBzl)-L-Leu-L-Leucinal] (Boc-Glu(OBn)-Leu-Leu-aldehyde) is over 50000 nM; for `CC(C)CC(C=O)NC(=O)C(CC(C)C)NC(=O)C(CC(=O)OCc1ccccc1)NC(=O)OC(C)(C)C` [Compound 3j, Boc-L-Asp(OBzl)-L-Leu-L-Leucinal] (Boc-Asp(OBn)-Leu-Leu-aldehyde; configuration not given here) it is 20300 ± 2050 nM.

As usually defined, the IC50 is the midpoint of a concentration-inhibition curve.
